The results in this text go back to patent US20050227355A1, “Serum-free cell culture media” (priority 1996, published 2005).

Data set [1] deals with adherent cells. The data set can be described thus: Growth stimulating effect of alcohols in adherent cell culture (Example 10). The format is cell-based. Conditions: concentrations around 0.1%. The source says:
Cell culture was again carried out as described in Example 8, but with the addition of a number of alcohols rather than sterols.
Test concentration: 1×=0.1%, or 5×=0.5%.

In data set [2] the test system is Hybridoma cells. The data set can be described thus: Growth promoting effect of alcohols on hybridoma cells (Example 1). The format is cell-based, Mouse. Conditions: for effect on cell growth (inhibition of cell growth): RPMI-SR3 protein-free medium, alcohol up to 1.0% by vol. As to the method:
• a) Hybridoma cells were cultured in RPMI 1640 supplemented with solutions A and B, described above plus 20 mM ethanolamine (referred to as RPMI-SR3), and by way of comparison in the same medium further supplemented with 10 mg/ml albumen (5% by vol.) or in RPMI 1640 supplemented with 10% v/v horse serum.

A short description of data set [3]: Stability of sterol against precipitation in medium. The format is physicochemical. As to the method:
The optimum sterol for cell culture should meet the following specifications: a) be stable against precipitation in medium at 37° C., b) stimulate cell growth and viability as well as does cholesterol, or better, and c) for adherent cells: produce a high surface tension in the medium for optimum adherence of the cells to the surface by hydrophobic forces.

Data set [4] has as its system Vero, CHO-K1 and 1E6 hybridoma cells. The data set can be described thus: Cell growth and morphology in media containing sterols other than cholesterol (Example 8). The format is cell-based. Conditions: test concentration 2 μg/ml. As to the method:
The basal media used were DME/F12 for adherent cells, and RPMI-X for suspension cells. The basal media were supplemented by SSR2 described above, i.e. a solution containing 20 mg/ml PLURONIC F68, about 4 mM EDTA, about 3 mM Fe, about 40 mM sodium citrate/citric acid, about 3 mM aurintricarboxylic acid and about 1% trace elements. […] For hybridoma cells, this was still further supplemented by ethanolamine at 20 μM. Each cul-ture was run in duplicate. As a control, cholesterol was also used, but in this case the basal medium was supplemented by ‘Solution Cx’ or ‘Solution Dx’ described above, as appropriate to the cell type. The negative controls referred to below were in each case a cell culture containing no test substance (sterol). Cells were cultivated through 2 passages for adherent cells, and 3 passages for the hybridoma line having regard to the greater difficulty of morphological scoring in suspension cultures, this being compensated by the longer culture period. All cultures of the same experiment were subcultured using an identical split ratio, for example 1:10; this ratio being adjusted in the individual experiments to suit the growth rate of the positive control (see above). […] Then adherent cells were trypsinized and subcultured further for the second passage—followed by counting the number of cells when confluent for the second time. Hybridoma cells, growing in suspension, were simply diluted in medium for each new passage. Counting of all kinds of cells were generally performed using a standard Bürker chamber, and viability determined by Trypan Blue exclusion (only viable cells were counted). In some experiments, where feasible, cells were counted directly in the microscope viewing field using a calibrated grid. […] The morphological index is mainly based on three properties: single cell morphology, number of cells, and the degree of uniform distribution of cells around the culture surface (‘cellular behaviour’).

A short description of data set [5]: Surface tension of the medium. The format is physicochemical.
In data set [6] the test system is 1E6 Mouse hybridoma. Put plainly: Sterol analogues in suspended cell culture (Example 8). The format is cell-based. Conditions: test concentration 2 μg/ml.
Procedure: The basal media were supplemented by SSR2 described above, i.e. a solution containing 20 mg/ml PLURONIC F68, about 4 mM EDTA, about 3 mM Fe, about 40 mM sodium citrate/citric acid, about 3 mM aurintricarboxylic acid and about 1% trace elements. […] Each cul-ture was run in duplicate. As a control, cholesterol was also used, but in this case the basal medium was supplemented by ‘Solution Cx’ or ‘Solution Dx’ described above, as appropriate to the cell type. The negative controls referred to below were in each case a cell culture containing no test substance (sterol).

“Also recorded” adds a separate entry of the source.

Take `CC(O)CO` (centres unmarked) [propylene glycol]: in data set [1], the “effects on cell growth and viability” value was “positive effects on cell growth and viability”.
In the case of `OCCO` [Ethylene Glycol], the “effects on cell growth and viability” value in data set [1] is “positive effects on cell growth and viability”.
As for `CCO` [Ethanol], the “effects on cell growth and viability” value in data set [1] is “positive effects on cell growth and viability”. Moreover, the results for the “effect on cell growth (inhibition of cell growth)” value in data set [2] and in data set [2] (listed as ethanol) were “positive effects on cell growth” and “negative inhibition (i.e. promotion) of cell growth”, respectively. In data set [2] (medium with 10 mg/ml albumen or 10% v/v horse serum), the “growth promoting effect in protein or serum supplemented media” value was “no growth promoting effect; also recorded: not apparent”.
Take `CC(=O)O[C@H]1CC[C@@]2(C)C(=CC[C@H]3[C@@H]4CC[C@H]([C@H](C)CCCC(C)C)[C@@]4(C)CC[C@@H]32)C1` [Cholesteryl Acetate]: the stability in medium entry in data set [3] was “stable in solution”. Besides, the “cell growth and viability / suitability as replacement of cholesterol” value in data set [4] is recorded as “barely affected”; in data set [4] (listed as cholesteryl acetate), “good results”.
With `C[C@H](CCC(=O)O)[C@H]1CC[C@H]2[C@@H]3[C@H](O)C[C@@H]4C[C@H](O)CC[C@]4(C)[C@H]3C[C@H](O)[C@]12C` [Cholic acid], the “surface tension of the medium” value in data set [5] is listed as “low surface tension”. The “substitution for cholesterol in suspended cell culture” value in data set [6] is “appears possible to substitute cholic acid for cholesterol”.
As for `CO` [Methanol], the “effect on cell growth (inhibition of cell growth)” value in data set [2] was “positive effects on cell growth”.
For the compound `CC[C@H](CC[C@@H](C)[C@H]1CC[C@H]2[C@@H]3CC=C4C[C@@H](O)CC[C@]4(C)[C@H]3CC[C@]12C)C(C)C` [β-sitosterol], the stability in medium result in data set [3] is reported as “less than satisfactory”. In data set [4], the “cell growth and viability / suitability as replacement of cholesterol” value is “functions well as a stimulant of cell growth and viability”.
In the case of `CC(C)CCC[C@@H](C)[C@H]1CC[C@H]2[C@@H]3CC=C4C[C@@H](O)CC[C@]4(C)[C@H]3CC[C@]12C` [Cholesterol], in data set [3], the stability in medium result is “somewhat unstable in media”. In data set [3] (4° C., with PLURONIC F68 and ethanol), the “solubility in the final medium at storage temperature” value is “kept in solution”. Moreover, the “solubility in the final medium at cultivation temperature” value in data set [3] (37° C., cell density below 10^5 cells/ml) is given as “gradually precipitate”.
